Experiments:
[1] = tested on: T. gondii tachyzoites; assay: Effects of sulfa drugs on intracellular Toxoplasma gondii in Vero cells (MTT); type: cell-based, Toxoplasma gondii RH strain; conditions: 24 h treatment
Protocol: For this purpose, Vero cells were cultured in 96-well plates (1×10^4 cells/well) for 24 h in RPMI 1640 medium supplemented with 10% inactivated FBS at 37 °C and 5% CO2. Next, the cells were infected with T. gondii tachyzoites (parasite: cell ratio = 10:1). Four hours following the inoculation, the cells were washed twice with RPMI to remove any non-adherent parasites. […] Cell viability was assayed by MTT method. Twenty microliters of 5 mg/ml MTT (Sigma, USA) was added to each well and the plate was incubated at 37 °C for 3 h. Then, MTT solution was removed, 100 μl DMSO was added, and the absorbance of each well was measured using a Benchmark Microplate Reader (Bio Rad). The optical absorbance was measured at 570-nm wavelength. Growth inhibition (GI) was calculated as in the following equation: GI%=At-Ac/Ac×100
where At and Ac are the absorbance of treated cells and control, respectively. […] Selectivity index (SI) of the samples was calculated using the IC50 and the host-cell cytotoxicity profiles CC50 (SI = CC50/IC50) (Montazeri et al. [2020]) using CompuSyn software (version 1) (Chou [2006]; Chou and Talaly [1977]).

[2] = tested on: tachyzoites; conditions: ref Portes et al. [2018]; cited from earlier work
[3] = Cytotoxicity test (MTT) on Vero cells; type: cell-based, African green monkey; conditions: African green monkey, 24 h incubation
Protocol: (§1) Vero cells were seeded at a density of 1×10^4 cells/well in 96-well plate and incubated for 24 h at 37 °C in a 5% CO2 incubator. […] A stock solution in DMSO was initially prepared then diluted 100 times with culture media to obtain the highest concentration, then it was serially diluted. Three replicates for each drug concentration were performed. Cell viability was assayed by MTT method where 20 μl of 5 mg/ml MTT (Sigma, USA) was added to each well, and the plate was incubated at 37 °C for 3 h. Then, MTT solution was removed, 100 μl DMSO was added, and the absorbance of each well was measured using a Benchmark Microplate Reader (Bio Rad). […] [2021]; Montazeri et al. [2020]). Experiments were repeated three times. Vero cell growth suppression (%) was estimated using the following equation: […]×100 using CompuSyn software (version 1) (Chou [2006]; Chou and Talaly [1977]).

[4] = tested on: T. gondii RH strain tachyzoites; assay: Transmission electron microscopy of intracellular tachyzoites in Vero cells; type: cell-based, Toxoplasma gondii RH strain; conditions: infected Vero cells treated with the IC50 of each compound for 24 h
Protocol: After confluence of Vero cells in four T-25 culture flasks, T. gondii RH strain tachyzoites, suspended in 5 ml of RPMI, and were added to each flasks in a ratio of 5:1 parasite-host cell (Diab and El-Bahy [2008]). Flasks were incubated for 2 h. After that, the cells were washed twice with culture media to remove extracellular parasites. The cells in culture flasks were incubated in 5 ml of culture media for 24 h at 37 °C in a 5% CO2 (Carvalho and De Melo [2010b]). […] For TEM (Jeol JSM-1400), trypsinization was followed by centrifugation at 2000g for 10 min, and the resulting pellet was fixed in buffered glutaraldehyde-phosphate 2.5% and stored at 4 °C until used (Shaw et al. [2002]). Then, the fixed specimens were washed thoroughly with Millonig phosphate buffer and post-fixed with buffered osmium tetroxide-phosphate. Following that, they were dehydrated in ascending concentrations of ethyl alcohol followed by embedding in epoxy resin. Finally, ultrathin sections were doubly stained with uranyl acetate and lead citrate trihydrate stains and examined under TEM (Winey et al. [2014]).

[5] = tested on: Vero cells; assay: Cytotoxicity test (MTT) on Vero cells; type: cell-based, African green monkey; conditions: 24 h incubation
Protocol: as §1

| Molecule | IC50 ([1]; Toxoplasma gondii) | Ultrastructural alterations in tachyzoites after treatment [2] | CC50 at 24 h [3] | IC50 [1] | Ultrastructural alterations of intracellular tachyzoites (TEM) [4] | CC50 [5] |
| --- | --- | --- | --- | --- | --- | --- |
| Nc1ccc(S(=O)(=O)Nc2ncccn2)cc1 [Sulfadiazine, sulfadiazine] | 185 ± 18.4 nM | no significant ultrastructural alterations | 1390 ± 100 nM |  |  |  |
| 4-(4-(hydroxymethyl)-1H-1,2,3-triazol-1-yl)-N-(pyridin-2-yl)benzenesulfonamide [3e] |  |  |  | 53.3 ± 10.5 nM | large PVs containing multiple vacuolated tachyzoites without nuclei or organelles | 510 ± 22 nM |

— article PMC10495491 (Parasitology Research, 2023)
